Assay results taken from article PMC2215435 (The Journal of General Physiology, 1981).
Read-outs that look alike come from different tables or passages of the source.

Test system: potassium channel
Type: cell-based, squid Loligo pealei
Conditions: for rate constant of block b: calculated from Kd = l/b and tau decay (Table IV); for tau decay / blocking rate constant K (fit of current with Eq. 2) / unblocking rate constant L (fit of current with Eq. 2): 30 μM; for blocking rate constant K (fit of current with Eq. 2) / unblocking rate constant L (fit of current with Eq. 2): Fig. 1B
[1] = +100 mV, several experiments, Fig. 3B, r = 0.98

Compound: CCCCCCCCCC[N+](CCC)(CCC)CCC [C10TP, decyltripropylammonium]
- rate constant of unblock l (+60 mV (Table IV)): 0.015 ms-1
- rate constant of block b (+60 mV): 0.13 ms-1 mM-1
- rate constant of unblock l (+80 mV (Table IV)): 0.016 ms-1
- rate constant of block b (+80 mV): 0.15 ms-1 mM-1
- rate constant of unblock l (+100 mV (Table IV)): 0.015 ms-1
- rate constant of block b (+100 mV): 0.17 ms-1 mM-1

Compound: CCCCCCCC[N+](CCC)(CCC)CCC [CsTP, octyltripropylammonium]
- rate constant of unblock l (+60 mV (Table IV)): 0.021 ms-1
- rate constant of block b (+60 mV): 0.95 ms-1 mM-1
- rate constant of unblock l (+80 mV (Table IV)): 0.031 ms-1
- rate constant of block b (+80 mV): 1.22 ms-1 mM-1
- rate constant of unblock l (+100 mV (Table IV)): 0.039 ms-1
- rate constant of block b (+100 mV): 1.40 ms-1 mM-1

Compound: CCCCCCC[N+](CC)(CC)CC [C7TE, heptyltriethylammonium]
- rate constant of unblock l (+60 mV (Table IV)): 0.071 ms-1
- rate constant of block b (+60 mV): 2.8 ms-1 mM-1
- rate constant of unblock l (+80 mV (Table IV)): 0.072 ms-1
- rate constant of block b (+80 mV): 3.4 ms-1 mM-1
- rate constant of unblock l (+100 mV (Table IV)): 0.063 ms-1
- rate constant of block b (+100 mV): 3.6 ms-1 mM-1

Compound: CCCCCCCCCC[N+](CC)(CC)CC [C10TE, decyltriethylammonium]
- tau decay (+100 mV, 6 °C): 5.78 ms
- tau decay (+100 mV, 8 °C): 3.83 ms
- tau decay (+100 mV, 16 °C): 2.06 ms
- rate constant of unblock l (+60 mV (Table IV)): 0.019 ms-1
- rate constant of block b (+60 mV): 5.2 ms-1 mM-1
- rate constant of unblock l (+80 mV (Table IV)): 0.019 ms-1
- rate constant of block b (+80 mV): 6.0 ms-1 mM-1
- rate constant of unblock l (+100 mV (Table IV)): 0.023 ms-1
- rate constant of block b (+100 mV): 6.7 ms-1 mM-1

Compound: CCCCCCCC[N+](CC)(CC)CCCO [CsDEProh, octyldiethylpropanolammonium]
- time constant of decay of potassium current (tau decay) (10 μM, +100 mV): 11.42 ms
- time constant of decay of potassium current (tau decay) (33 μM, +100 mV): 6.88 ms
- time constant of decay of potassium current (tau decay) (100 μM, +100 mV): 2.21 ms
- rate constant of unblock l (+60 mV (Table IV)): 0.0236 ms-1
- rate constant of block b (+60 mV): 2.56 ms-1 mM-1
- rate constant of unblock l (+80 mV (Table IV)): 0.0308 ms-1
- rate constant of block b (+80 mV): 3.55 ms-1 mM-1
- rate constant of unblock l (+100 mV (Table IV)): 0.0262 ms-1
- b from straight line 1/tau decay = b[QA] + l [1]: 4.0 ms-1 mM-1
- l from straight line 1/tau decay = b[QA] + l [1]: 0.032 ms-1
- rate constant of block b (+100 mV): 4.10 ms-1 mM-1

Compound: CCCCCCCC[N+](CC)(CC)CC [CsTE, octyltriethylammonium]
- rate constant of unblock l (+60 mV (Table IV)): 0.038 ms-1
- rate constant of block b (+60 mV): 5.1 ms-1 mM-1
- rate constant of unblock l (+80 mV (Table IV)): 0.038 ms-1
- rate constant of block b (+80 mV): 5.5 ms-1 mM-1
- rate constant of unblock l (+100 mV (Table IV)): 0.043 ms-1
- rate constant of block b (+100 mV): 5.9 ms-1 mM-1

Compound: CCCCCCCC[N+](CC)(CC)CCO [CsDEEtoh, octyldiethylethanolammonium]
- blocking rate constant K (fit of current with Eq. 2) (+60 mV): 0.162 ms-1
- unblocking rate constant L (fit of current with Eq. 2) (+60 mV): 0.118 ms-1
- blocking rate constant K (fit of current with Eq. 2) (+100 mV): 0.234 ms-1
- unblocking rate constant L (fit of current with Eq. 2) (+100 mV): 0.112 ms-1
- rate constant of block b (+60 mV): 6.2 ms-1 mM-1
- rate constant of block b (+80 mV): 8.0 ms-1 mM-1
- rate constant of block b (+100 mV): 9.4 ms-1 mM-1

Compound: CCCCCCCCCC[N+](CCO)(CCO)CCO [C10TEtoh, decyltriethanolammonium]
- rate constant of unblock l (+60 mV (Table IV)): 0.084 ms-1
- rate constant of block b (+60 mV): 0.43 ms-1 mM-1
- rate constant of unblock l (+80 mV (Table IV)): 0.097 ms-1
- rate constant of block b (+80 mV): 0.55 ms-1 mM-1
- rate constant of unblock l (+100 mV (Table IV)): 0.110 ms-1
- rate constant of block b (+100 mV): 0.65 ms-1 mM-1

Compound: CC[N+](CC)(CC)CCCc1ccccc1 [~PTE, phenylpropyltriethylammonium]
- rate constant of unblock l (+60 mV (Table IV)): 0.015 ms-1
- rate constant of block b (+60 mV): 2.5 ms-1 mM-1
- rate constant of unblock l (+80 mV (Table IV)): 0.013 ms-1
- rate constant of block b (+80 mV): 2.7 ms-1 mM-1
- rate constant of unblock l (+100 mV (Table IV)): 0.025 ms-1
- rate constant of block b (+100 mV): 3.5 ms-1 mM-1

Compound: CC[N+](CC)(CCO)CCCc1ccccc1 [~PDEEtoh, phenylpropyldiethylethanolammonium]
- rate constant of unblock l (+60 mV (Table IV)): 0.024 ms-1
- rate constant of block b (+60 mV): 3.4 ms-1 mM-1
- rate constant of unblock l (+80 mV (Table IV)): 0.037 ms-1
- rate constant of block b (+80 mV): 3.9 ms-1 mM-1
- rate constant of unblock l (+100 mV (Table IV)): 0.033 ms-1
- rate constant of block b (+100 mV): 4.3 ms-1 mM-1

Compound: CCCCCCCCC[N+](CC)(CC)CC [C9TE, nonyltriethylammonium]
- rate constant of unblock l (+60 mV (Table IV)): 0.030 ms-1
- rate constant of block b (+60 mV): 5.5 ms-1 mM-1
- rate constant of unblock l (+80 mV (Table IV)): 0.028 ms-1
- rate constant of block b (+80 mV): 6.1 ms-1 mM-1
- rate constant of unblock l (+100 mV (Table IV)): 0.033 ms-1
- rate constant of block b (+100 mV): 7.3 ms-1 mM-1
